Laboratory results taken from patent US7615574B2, “Synergistic composition for treating leukemia” (Council of Scientific and Industrial Research, priority 2002, dated 2009).
Like-named read-outs stand apart in the source and are kept apart here.

Experiments:
[1] = test system: CML Patient's Leukemic cells; experiment: CA, PCQ and combination: growth inhibition of CML patient's leukemic cells (2×10^6 cells per ml per well); format: cell-based, human; conditions: for percentage growth inhibition of CML's leukemic cells: concentration not given
[2] = test system: U937 Promonocyte cell line; experiment: CA, PCQ and combination: growth inhibition of U937 (2×10^6 cells per ml per well); format: cell-based, human; conditions: for percentage growth inhibition of promonocyte cells: concentration not given
[3] = test system: K 562 Erythroleukemia cell line; experiment: CA, PCQ and combination: growth inhibition of K562 (2×10^6 cells per ml per well); format: cell-based, human; conditions: for percentage growth inhibition of Erythroleukemia cells: concentration not given
Normal individual's PBMC = experiment: CA, PCQ and combination: growth inhibition of normal individual's PBMC (2×10^6 cells per ml per well); format: cell-based, human
Excerpt: Preparation of peripheral blood mononuclear cells (PBMC) from normal individuals. Whole blood was collected and mononuclear cells were separated by Ficoll/Hypaque density gradient centrifugation.
The number of cells used was 2×10^6 per ml per well.

leukemia cells = experiment: Biological activity of Piper betel HPLC zones and peaks: destruction of leukemic cells; format: cell-based; conditions: HPLC zones and peaks of Fraction E of Piper betel leaf extract
Excerpt: Collected material was examined for biological activity i.e. destruction of leukemic cells. […] 10 gm of above-mentioned material was loaded on Sephadex LH-20 column and chromatographed with water, water-methanol (1:1) and methanol as eluent. Three different fractions thus obtained from three different solvent systems were separately checked for biological activity. The activity was located only on
Fraction 2 i.e. Methanol-water (1:1) and termed as fraction E. Fraction E was then subjected to HPLC analysis using Intersil ODS-3 analytical column. The column was equilibrated with methanol-water-acetic acid (23:76:1), flow rate was maintained at 1.0 ml per min and peaks were identified at 280 nm. According to the retention time (RE) different peaks could be divided into three zones, ZA, ZB and ZC (FIG. 1). ZA had 4 major peaks whereas ZB had very small to moderate 10 peaks and ZC had two distinct peaks. It was convenient to observe biological activity of three zones AA, ZB and ZC, which were separately tested on leukemia cells for destructive activity.
The Zone ZB contained 10 peaks (1 to 10) of varied sizes. […] For this reason all different peaks were separately monitored for biological activity. […] On searching for activity of these peaks i.e. 1,5,6,7,9 and 10 corresponding to Rt 5.16, 8.34, 9.16, 9.86, 13.94 and 14.68 respectively. […]

CML patient's PBMC = experiment: Incubation of CML patient's PBMC with CA, viable cell count (growth inhibition); format: cell-based, human; conditions: PBMC / leukemic cells of CML patient
Method: Whole blood (10 ml each) was drawn from previously diagnosed myeloid leukemic patients, one patient was diagnosed as AML and the other one was diagnosed as CML. Mononuclear cells were separated by Ficoll/hypaque density gradient centrifugation. PBMC (1×10^5-2×10^6/ml) of myeloid leukemia patients were incubated with varied concentrations of CA for 48 hours at 37° C. in 5% CO2. Cells were then washed and counted for viability.

[4] = test system: Molt 4 (T lymphoid Cell line); experiment: Growth inhibition of T lymphoid cell line Molt 4 by CA in vitro; format: cell-based; conditions: Homo sapiens, 1 × 10^5 cells per ml per well, read-out: Percentage Inhibition of Cell Growth; for inhibition at 50 µg/mL: CA 50.0 μg/ml; for inhibition at 100 µg/mL: CA 100.0 μg/ml; for inhibition at 200 µg/mL: CA 200.0 μg/ml
Excerpt: Culture of T-Lymphoid cell line Molt-4. This cell line was obtained from American Type culture collection (ATCC), VA, USA and grown in vitro as described for the cell line K562.

[5] = test system: CML Patient's Leukemic cells; experiment: Analysis of cell cycle progression and apoptosis by Flow cytometry (propidium iodide); format: cell-based, human; conditions: 100.0 μg/ml; two days of culture
Method: Analysis of cell cycle progression and apoptosis by Flow cytometry PBMC of a CML patient was cultured in RPMI-1640 medium supplemented with 10% […] fetal bovine serum in the presence or absence of CA (100.0 μg/ml) for 48 hr. at 37° C. in 5% CO2. Cells were fixed with 40% ethanol treated with 500 μg/ml Rnase A, and then with 69 μM propidium iodide for analysis of DNA content by Flow Cytometry as described (Mitra et al., Molecular Medicine, 6:527-541, 2000).

O=C(C=Cc1ccc(O)cc1)OC1CC(O)(C(=O)O)CC(O)C1O (stereo not shown) [PCQ, 3-o-p-Coumaryl quinic acid]
% Inhibition of cell growth (After 1 day of incubation) ([1]; CML patient's leukemic cells, single compound 50.0 μg/ml, 1 day, 2×10^6 cells per ml per well): 4.67%
percentage growth inhibition of CML's leukemic cells [1]: about 5%
% Inhibition of cell growth (After 1 day of incubation) ([2]; U937, single compound 50.0 μg/ml, 1 day, 2×10^6 cells per ml per well): 4.17%
percentage growth inhibition of promonocyte cells [2]: about 5%
% Inhibition of cell growth (After 1 day of incubation) ([3]; K 562, single compound 50.0 μg/ml, 1 day, 2×10^6 cells per ml per well): 8.00%
percentage growth inhibition of Erythroleukemia cells [3]: about 8%
% Inhibition of cell growth (After 1 day of incubation) (Normal individual's PBMC; single compound 25.0 μg/ml): 0.00%
% Inhibition of cell growth (After 1 day of incubation) (Normal individual's PBMC; single compound 50.0 μg/ml): 1.67%
biological activity i.e. destruction of leukemic cells (in words) (leukemia cells): demonstrated considerable activity

O=C(/C=C/c1ccc(O)c(O)c1)O[C@@H]1C[C@](O)(C(=O)O)C[C@@H](O)[C@H]1O (single isomer, unassigned) [CA, Chlorogenic acid]
inhibition at 25 µg/mL ([1]; Homo sapiens, 24 h, CML patient's leukemic cells, single compound 25.0 μg/ml, 1 day, 2×10^6 cells per ml per well, read-out: % Inhibition of cell growth (After 1 day of incubation)): ≤ 2.38%
inhibition at 50 µg/mL ([1]; Homo sapiens, 24 h, CML patient's leukemic cells, single compound 50.0 μg/ml, 1 day, 2×10^6 cells per ml per well, read-out: % Inhibition of cell growth (After 1 day of incubation)): 4.67%
percentage growth inhibition of CML's leukemic cells [1]: about 5%
inhibition at 25 µg/mL ([2]; Homo sapiens, U-937, 24 h, U937, single compound 25.0 μg/ml, 1 day, 2×10^6 cells per ml per well, read-out: % Inhibition of cell growth (After 1 day of incubation)): ≤ 16.7%
percentage growth inhibition of promonocyte cells [2]: about 25%
destruction of cells (in words) (CML patient's PBMC): destroyed
percentage growth inhibition of Erythroleukemia cells [3]: about 30%
inhibition at 50 µg/mL ([4]; 24 h, 1 day): 3.57%
inhibition at 100 µg/mL ([4]; 24 h, 1 day): 6.89%
inhibition at 200 µg/mL ([4]; 24 h, 1 day): 13.8%
inhibition at 50 µg/mL ([4]; 48 h, 2 days): 6.67%
inhibition at 100 µg/mL ([4]; 48 h, 2 days): 14.7%
inhibition at 200 µg/mL ([4]; 48 h, 2 days): 46.7%
inhibition at 100 µg/mL ([4]; 72 h, 3 days): 18.8%
biological activity i.e. destruction of leukemic cells (in words) (leukemia cells): detectable activity
apoptosis in CML patients Leukemic cells in vitro (cell-cycle analysis) [5]: caused apoptosis
